Data published in patent US11780839B2, “Compounds for treating Huntington's disease” (PTC THERAPEUTICS, INC., priority 2018, dated 2023).

tested on: Endogenous Huntingtin Protein; assay: Endogenous Huntingtin Protein Assay (ELISA-based Meso Scale Discovery electrochemiluminescence); assay type: cell-based; conditions: MSD electrochemiluminescence, Table 1
Procedure, shortened: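 Huntingtin was captured overnight at 4 °C on plates coated with 1 μg/mL MW1 (polyQ-expanded) or MAB2166 antibody and BSA-blocked. Detection used a rabbit monoclonal and then a SULFO-TAG goat anti-rabbit antibody (0.25 μg/mL, 1 h each, room temperature). Signal was read by electrochemiluminescence.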

`Cc1ncc(-c2ccc(-c3cnc(N(C)C4CC(C)(C)NC(C)(C)C4)nn3)c(O)c2)s1` [Cpd 64, 2-{3-[methyl(2,2,6,6-tetramethylpiperidin-4-yl)amino]-1,2,4-triazin-6-yl}-5-(2-methyl-1,3-thiazol-5-yl)phenol] and `Cc1cc(-c2ccc(-c3cnc(N(C)C4CC(C)(C)NC(C)(C)C4)nn3)c(O)c2)cnn1` [Cpd 61, 5-(6-methylpyridazin-4-yl)-2-{3-[methyl(2,2,6,6-tetramethylpiperidin-4-yl)amino]-1,2,4-triazin-6-yl}phenol] cannot be ordered by IC50: ≤ 100 nM for the first, ≤ 100 nM for the second.

`Cn1cc(-c2ccc(-c3cnc(N[C@H]4CC(C)(C)NC(C)(C)[C@H]4F)nn3)c(O)c2)cn1` [Cpd 201, 2-(3-{[(3S,4S)-3-fluoro-2,2,6,6-tetramethylpiperidin-4-yl]amino}-1,2,4-triazin-6-yl)-5-(1-methyl-1H-pyrazol-4-yl)phenol] and `[2H]C([2H])([2H])n1cc(-c2ccc(-c3cnc(N[C@H]4CC(C)(C)NC(C)(C)[C@H]4F)nn3)c(O)c2)cn1` [Cpd 377, 2-(3-{[(3S,4S)-3-fluoro-2,2,6,6-tetramethylpiperidin-4-yl]amino}-1,2,4-triazin-6-yl)-5-[1-(^2H3)methyl-1H-pyrazol-4-yl]phenol] cannot be ordered by IC50: ≤ 100 nM for the first, ≤ 100 nM for the second.

`CC(C)(C)NC1CCN(c2cnc(-c3ccc(-c4c[nH]nc4F)cc3O)nn2)C1` (stereo not drawn) [Cpd 374, 2-{6-[3-(tert-butylamino)pyrrolidin-1-yl]-1,2,4-triazin-3-yl}-5-(3-fluoro-1H-pyrazol-4-yl)phenol] and `CC(C)(C)NC1CCN(c2ncc(-c3ccc(-c4c[nH]nc4F)cc3O)nn2)C1` (stereo not drawn) [Cpd 174, 2-{3-[3-(tert-butylamino)pyrrolidin-1-yl]-1,2,4-triazin-6-yl}-5-(3-fluoro-1H-pyrazol-4-yl)phenol] cannot be ordered by IC50: ≤ 100 nM for the first, ≤ 100 nM for the second.

`CN1CCC2(CC1)CN(c1ncc(-c3ccc(-c4cnc5c(cnn5C)c4)cc3O)nn1)C2` [Cpd 224, 2-[3-(7-methyl-2,7-diazaspiro[3.5]nonan-2-yl)-1,2,4-triazin-6-yl]-5-(1-methyl-1H-pyrazolo[3,4-b]pyridin-5-yl)phenol] and `CN1CCC2(CC1)CN(c1ncc(-c3ccc(-c4cn5ccnc5cn4)cc3O)nn1)C2` [Cpd 257, 5-(imidazo[1,2-a]pyrazin-6-yl)-2-[3-(7-methyl-2,7-diazaspiro[3.5]nonan-2-yl)-1,2,4-triazin-6-yl]phenol] fall in the same range of IC50: 1000 to 3000 nM for the first, 1000 to 3000 nM for the second.

`CN(c1ncc(-c2ccc(-c3ccc4c(nnn4C)n3)cc2O)nn1)C1CC(C)(C)NC(C)(C)C1` [Cpd 186, 2-{3-[methyl(2,2,6,6-tetramethylpiperidin-4-yl)amino]-1,2,4-triazin-6-yl}-5-(1-methyl-1H-[1,2,3]triazolo[4,5-b]pyridin-5-yl)phenol] and `CN(c1ncc(-c2ccc(-c3cnccn3)cc2O)nn1)C1CC(C)(C)NC(C)(C)C1` [Cpd 83, 2-{3-[methyl(2,2,6,6-tetramethylpiperidin-4-yl)amino]-1,2,4-triazin-6-yl}-5-(pyrazin-2-yl)phenol] cannot be ordered by IC50: ≤ 100 nM for the first, ≤ 100 nM for the second.

`Cn1ccc(-c2ccc(-c3cnc(N[C@H]4CC(C)(C)NC(C)(C)[C@H]4F)nn3)c(O)c2)n1` [Cpd 261, 2-(3-{[(3S,4S)-3-fluoro-2,2,6,6-tetramethylpiperidin-4-yl]amino}-1,2,4-triazin-6-yl)-5-(1-methyl-1H-pyrazol-3-yl)phenol] and `CC1(C)C[C@H](Nc2ncc(-c3ccc(-c4cn[nH]c4)cc3O)nn2)[C@H](F)C(C)(C)N1` [Cpd 322, 2-(3-{[(3S,4S)-3-fluoro-2,2,6,6-tetramethylpiperidin-4-yl]amino}-1,2,4-triazin-6-yl)-5-(1H-pyrazol-4-yl)phenol] cannot be ordered by IC50: ≤ 100 nM for the first, ≤ 100 nM for the second.

First: CN(C)CC1CCN(c2ncc(-c3ccc(-c4cn[nH]c4)cc3O)nn2)C1 (stereo not drawn) [Cpd 410, 2-(3-{3-[(dimethylamino)methyl]pyrrolidin-1-yl}-1,2,4-triazin-6-yl)-5-(1H-pyrazol-4-yl)phenol]
Second: Oc1cc(-c2cn[nH]c2)ccc1-c1cnc(N2CCC(NC3COC3)C2)nn1 (stereo not drawn) [Cpd 312, 2-(3-{3-[(oxetan-3-yl)amino]pyrrolidin-1-yl}-1,2,4-triazin-6-yl)-5-(1H-pyrazol-4-yl)phenol]
The IC50 of the first is lower: ≤ 100 nM for the first, 1000 to 3000 nM for the second.

`Cn1cc(-c2ccc(-c3cnc(NC4CC(C)(C)NC(C)(C)C4)nn3)c(O)c2)cn1` [Cpd 199, 5-(1-methyl-1H-pyrazol-4-yl)-2-{3-[(2,2,6,6-tetramethylpiperidin-4-yl)amino]-1,2,4-triazin-6-yl}phenol] and `Cn1ncc(-c2ccc(-c3cnc(NC4CC(C)(C)NC(C)(C)C4)nn3)c(O)c2)n1` [Cpd 266, 5-(2-methyl-2H-1,2,3-triazol-4-yl)-2-{3-[(2,2,6,6-tetramethylpiperidin-4-yl)amino]-1,2,4-triazin-6-yl}phenol] cannot be ordered by IC50: ≤ 100 nM for the first, ≤ 100 nM for the second.

`CN(c1cnc(-c2ccc(-c3ccn(C)n3)cc2O)nn1)C1CC(C)(C)NC(C)(C)C1` [Cpd 343, 5-(1-methyl-1H-pyrazol-3-yl)-2-{6-[methyl(2,2,6,6-tetramethylpiperidin-4-yl)amino]-1,2,4-triazin-3-yl}phenol] and `CN(c1cnc(-c2ccc(-c3ccncc3)cc2O)nn1)C1CC(C)(C)NC(C)(C)C1` [Cpd 382, 2-{6-[methyl(2,2,6,6-tetramethylpiperidin-4-yl)amino]-1,2,4-triazin-3-yl}-5-(pyridin-4-yl)phenol] cannot be ordered by IC50: ≤ 100 nM for the first, ≤ 100 nM for the second.

First: CNC1CCN(c2ncc(-c3ccc(-c4ncccn4)cc3O)nn2)C1 (stereo not drawn) [Cpd 270, 2-{3-[3-(methylamino)pyrrolidin-1-yl]-1,2,4-triazin-6-yl}-5-(pyrimidin-2-yl)phenol]
Second: CNC1CCN(c2ncc(-c3ccc(-n4nccn4)cc3O)nn2)C1 (stereo not drawn) [Cpd 218, 2-{3-[3-(methylamino)pyrrolidin-1-yl]-1,2,4-triazin-6-yl}-5-(2H-1,2,3-triazol-2-yl)phenol]
The IC50 of the first is higher: 1000 to 3000 nM for the first, 100 to 500 nM for the second. The second is the more potent here.

`CN(c1ncc(-c2ccc(-n3cnc(C#N)c3)cc2O)nn1)C1CC(C)(C)NC(C)(C)C1` [Cpd 139, 1-(3-hydroxy-4-{3-[methyl(2,2,6,6-tetramethylpiperidin-4-yl)amino]-1,2,4-triazin-6-yl}phenyl)-1H-imidazole-4-carbonitrile] and `CN(c1ncc(-c2ccc(-n3cccn3)cc2O)nn1)C1CC(C)(C)NC(C)(C)C1` [Cpd 17, 2-{3-[methyl(2,2,6,6-tetramethylpiperidin-4-yl)amino]-1,2,4-triazin-6-yl}-5-(1H-pyrazol-1-yl)phenol] fall in the same range of IC50: 100 to 500 nM for the first, 100 to 500 nM for the second.

`COc1cc(-c2ccc(-c3cnc(N(C)C4CC(C)(C)NC(C)(C)C4)nn3)c(O)c2)ccn1` [Cpd 3, 5-(2-methoxypyridin-4-yl)-2-{3-[methyl(2,2,6,6-tetramethylpiperidin-4-yl)amino]-1,2,4-triazin-6-yl}phenol] and `COc1ncnc(-c2ccc(-c3cnc(N(C)C4CC(C)(C)NC(C)(C)C4)nn3)c(O)c2)n1` [Cpd 88, 5-(4-methoxy-1,3,5-triazin-2-yl)-2-{3-[methyl(2,2,6,6-tetramethylpiperidin-4-yl)amino]-1,2,4-triazin-6-yl}phenol] cannot be ordered by IC50: ≤ 100 nM for the first, ≤ 100 nM for the second.

`CN1[C@@H]2CCC[C@H]1CC(Nc1ncc(-c3ccc(-c4cn[nH]c4)cc3O)nn1)C2` (stereo partly drawn) [Cpd 77, 2-{3-{[(1R,3s,5S)-9-methyl-9-azabicyclo[3.3.1]nonan-3-yl]amino}-1,2,4-triazin-6-yl)-5-(1H-pyrazol-4-yl)phenol] and `Oc1cc(-c2cn[nH]c2)ccc1-c1cnc(N2CCC3(CNC3)C2)nn1` [Cpd 110, 2-[3-(2,6-diazaspiro[3.4]octan-6-yl)-1,2,4-triazin-6-yl]-5-(1H-pyrazol-4-yl)phenol] cannot be ordered by IC50: ≤ 100 nM for the first, 100 to 500 nM for the second.

`Cn1cc(-c2ccc(-c3cnc(N4CCC(C)(N)C4)nn3)c(O)c2)cn1` (stereo not drawn) [Cpd 389, 2-[3-(3-amino-3-methylpyrrolidin-1-yl)-1,2,4-triazin-6-yl]-5-(1-methyl-1H-pyrazol-4-yl)phenol] and `Oc1cc(-c2cn[nH]c2)ccc1-c1cnc(N2CC3(CCNCC3)C2)nn1` [Cpd 96, 2-[3-(2,7-diazaspiro[3.5]nonan-2-yl)-1,2,4-triazin-6-yl]-5-(1H-pyrazol-4-yl)phenol] cannot be ordered by IC50: ≤ 100 nM for the first, ≤ 100 nM for the second.

First: Cn1ncc2cc(-c3ccc(-c4cnc(N5CCC(NC(C)(C)C)C5)nn4)c(O)c3)cnc21 (stereo not drawn) [Cpd 221, 2-{3-[3-(tert-butylamino)pyrrolidin-1-yl]-1,2,4-triazin-6-yl}-5-(1-methyl-1H-pyrazolo[3,4-b]pyridin-5-yl)phenol]
Second: Cn1nnc(-c2ccc(-c3cnc(N4CCC(NC(C)(C)C)C4)nn3)c(O)c2)n1 (stereo not drawn) [Cpd 211, 2-{3-[3-(tert-butylamino)pyrrolidin-1-yl]-1,2,4-triazin-6-yl}-5-(2-methyl-2H-tetrazol-5-yl)phenol]
The IC50 of the first is higher: > 500 nM for the first, ≤ 100 nM for the second.

`CN(c1ncc(-c2ccc(-c3ncc(F)cn3)cc2O)nn1)C1CC(C)(C)NC(C)(C)C1` [Cpd 112, 5-(5-fluoropyrimidin-2-yl)-2-{3-[methyl(2,2,6,6-tetramethylpiperidin-4-yl)amino]-1,2,4-triazin-6-yl}phenol] and `CN(c1ncc(-c2ccc(-c3cn(C)nc3F)cc2O)nn1)C1CC(C)(C)NC(C)(C)C1` [Cpd 18, 5-(3-fluoro-1-methyl-1H-pyrazol-4-yl)-2-{3-[methyl(2,2,6,6-tetramethylpiperidin-4-yl)amino]-1,2,4-triazin-6-yl}phenol] cannot be ordered by IC50: 100 to 500 nM for the first, ≤ 100 nM for the second.

`Cc1ncc(-c2ccc(-c3cnc(N4CCC(NC(C)C)C4)nn3)c(O)c2)o1` (stereo not drawn) [Cpd 289, 5-(2-methyl-1,3-oxazol-5-yl)-2-(3-{3-[(propan-2-yl)amino]pyrrolidin-l-yl}-1,2,4-triazin-6-yl)phenol] and `CC(C)NC1CCN(c2ncc(-c3ccc(-n4nccn4)cc3O)nn2)C1` (stereo not drawn) [Cpd 264] cannot be ordered by IC50: ≤ 100 nM for the first, 100 to 500 nM for the second.

Going from `CC1(C)CC(Nc2cnc(-c3ccc(-c4cn[nH]c4)cc3O)nn2)CC(C)(C)N1` [Cpd 396, 5-(1H-pyrazol-4-yl)-2-{6-[(2,2,6,6-tetramethylpiperidin-4-yl)amino]-1,2,4-triazin-3-yl}phenol] to `Cn1ccc(-c2ccc(-c3cnc(OC4CC(C)(C)NC(C)(C)C4)nn3)c(O)c2)n1` [Cpd 108, 5-(1-methyl-1H-pyrazol-3-yl)-2-{3-[(2,2,6,6-tetramethylpiperidin-4-yl)oxy]-1,2,4-triazin-6-yl}phenol], the IC50 rises from ≤ 100 nM to > 500 nM.
